From patent US20080242663A1, “NOVEL PYRIMIDINE DERIVATIVES 698” (ASTRAZENECA AB, priority 2007, published 2008)

biological target: T1, recombinant EphB4 (Homo sapiens, UniProt P54760); experiment: In vitro EphB4 enzyme assay (Alphascreen); format: biochemical
T1 construct: amino acids 563-987; Swiss-Prot Acc; No. P54760; purchased ProQinase GmbH 0178-0000-3
T1 sequence (P54760 563-987): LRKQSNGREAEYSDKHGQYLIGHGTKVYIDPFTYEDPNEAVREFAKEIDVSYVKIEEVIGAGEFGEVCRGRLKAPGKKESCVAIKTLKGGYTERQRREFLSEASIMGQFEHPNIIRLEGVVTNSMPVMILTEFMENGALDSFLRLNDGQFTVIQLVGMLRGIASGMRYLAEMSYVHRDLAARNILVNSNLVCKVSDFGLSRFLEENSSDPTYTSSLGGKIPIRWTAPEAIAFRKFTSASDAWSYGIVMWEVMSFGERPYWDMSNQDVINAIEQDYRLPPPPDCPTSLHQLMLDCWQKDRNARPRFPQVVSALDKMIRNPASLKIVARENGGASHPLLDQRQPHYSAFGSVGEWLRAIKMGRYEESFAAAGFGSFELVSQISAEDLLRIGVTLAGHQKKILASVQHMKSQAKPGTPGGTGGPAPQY
Protocol: This assay detects inhibitors of EphB4-mediated phosphorylation of a polypeptide substrate using Alphascreen™ luminescence detection technology. Briefly, recombinant EphB4 was incubated with a biotinylated-polypeptide substrate (biotin-poly-GAT) in presence of magnesium-ATP. The reaction was stopped by addition of EDTA, together with streptavidin-coated donor beads which bind the biotin-substrate containing any phosphorylated tyrosine residues. Anti-phosphotyrosine antibodies present on acceptor beads bind to phosphorylated substrate, thus bringing the donor & acceptor beads into close proximity. Subsequent excitation of the donor beads at 680 nm generated singlet oxygen species that interact with a chemiluminescer on the acceptor beads, leading to light emission at 520-620 nm. The signal intensity is directly proportional to the level of substrate phosphorylation and thus inhibition is measured by a decrease in signal.
Assay plates were then incubated at room temperature for 1 hr. […] The plates were sealed under natural lighting conditions, wrapped in aluminium foil and incubated in the dark for a further 20 hrs.
The resulting assay signal was determined on the Perkin Elmer EnVision plate reader. The minimum value was subtracted from all values, and the signal plotted against compound concentration to generate IC50 data.

| SMILES | IC50 |
| --- | --- |
| CN(c1ccnc(Nc2cc(N3CCOCC3)cc(N3CCSCC3)c2)n1)c1ccc(F)c(Cl)c1F [Example 1, N′-(3-chloro-2,4-difluoro-phenyl)-N′-methyl-N-(3-morpholin-4-yl-5-thiomorpholin-4-yl-phenyl)pyrimidine-2,4-diamine] | 763 nM |
| CN(c1ccnc(Nc2cc(N3CCOCC3)cc(N3CCOCC3)c2)n1)c1ccc(F)c(Cl)c1F [Example 2.1, N′-(3-chloro-2,4-difluoro-phenyl)-N-(3,5-dimorpholin-4-ylphenyl)-N′-methyl-pyrimidine-2,4-diamine] | 829 nM |
| CN(c1ccnc(Nc2cccc(N3CCOCC3)c2)n1)c1ccc(F)c(Cl)c1F [Example 2.3, N′-(3-chloro-2,4-difluoro-phenyl)-N′-methyl-N-(3-morpholin-4-ylphenyl)pyrimidine-2,4-diamine] | 304 nM |
| COc1cc(Nc2nccc(N(C)c3ccc(F)c(Cl)c3F)n2)cc(N2CCOCC2)c1 [Example 2.4, N′-(3-chloro-2,4-difluoro-phenyl)-N-(3-methoxy-5-morpholin-4-yl-phenyl)-N′-methyl-pyrimidine-2,4-diamine] | 348 nM |
| CN(c1ccnc(Nc2cc(C#N)cc(N3CCOCC3)c2)n1)c1ccc(F)c(Cl)c1F [Example 2.5, 3-[[4-[(3-chloro-2,4-difluoro-phenyl)-methyl-amino]pyrimidin-2-yl]amino]-5-morpholin-4-yl-benzonitrile] | 937 nM |
| CN(c1ccnc(Nc2cc(N3CCOCC3)cc(S(C)(=O)=O)c2)n1)c1ccc(F)c(Cl)c1F [Example 2.6, N′-(3-chloro-2,4-difluoro-phenyl)-N′-methyl-N-(3-methylsulfonyl-5-morpholin-4-yl-phenyl) pyrimidine-2,4-diamine] | 447 nM |
| CN(c1ccnc(Nc2cc(CO)cc(N3CCOCC3)c2)n1)c1ccc(F)c(Cl)c1F [Example 2.7, [3-[[4-[(3-chloro-2,4-difluoro-phenyl)-methyl-amino]pyrimidin-2-yl]amino]-5-morpholin-4-yl-phenyl] methanol] | 117 nM |
| CN(C)C(=O)c1cc(Nc2nccc(N(C)c3ccc(F)c(Cl)c3F)n2)cc(N2CCOCC2)c1 [Example 2.8, 3-[[4-[(3-chloro-2,4-difluoro-phenyl)-methyl-amino]pyrimidin-2-yl]amino]-N,N-dimethyl-5-morpholin-4-yl-benzamide] | 335 nM |
| COCCOc1cc(Nc2nccc(N(C)c3ccc(F)c(Cl)c3F)n2)cc(N2CCOCC2)c1 [Example 2.9, N′-(3-chloro-2,4-difluoro-phenyl)-N-[3-(2-methoxyethoxy)-5-morpholin-4-yl-phenyl]-N′-methyl-pyrimidine-2,4-diamine] | 781 nM |
| CN(c1ccnc(Nc2cc(N3CCC(O)CC3)cc(S(C)(=O)=O)c2)n1)c1ccc(F)c(Cl)c1F [Example 2.11, 1-[3-[[4-[(3-chloro-2,4-difluoro-phenyl)-methyl-amino]pyrimidin-2-yl]amino]-5-methylsulfonyl-phenyl] piperidin-4-ol] | 106 nM |
| CC(=O)N1CCN(c2cc(Nc3nccc(N(C)c4ccc(F)c(Cl)c4F)n3)cc(S(C)(=O)=O)c2)CC1 [Example 2.12, 1-[4-[3-[[4-[(3-chloro-2,4-difluoro-phenyl)-methyl-amino]pyrimidin-2-yl]amino]-5-methylsulfonyl-phenyl]piperazin-1-yl] ethanone] | 189 nM |
| CN(c1ccnc(Nc2cc(N3CCN(CCO)CC3)cc(S(C)(=O)=O)c2)n1)c1ccc(F)c(Cl)c1F [Example 2.13, 2-[4-[3-[[4-[(3-chloro-2,4-difluoro-phenyl)-methyl-amino]pyrimidin-2-yl]amino]-5-methylsulfonyl-phenyl]piperazin-1-yl] ethanol] | 69.7 nM |
| COCc1cc(Nc2nccc(N(C)c3ccc(F)c(Cl)c3F)n2)cc(N2CCOCC2)c1 [Example 2.14, N′-(3-chloro-2,4-difluoro-phenyl)-N-[3-(methoxymethyl)-5-morpholin-4-yl-phenyl]-N′-methyl-pyrimidine-2,4-diamine] | 653 nM |
| CN(c1ccnc(Nc2cc(CN3CCOCC3)cc(N3CCOCC3)c2)n1)c1ccc(F)c(Cl)c1F [Example 2.16, N′-(3-chloro-2,4-difluoro-phenyl)-N′-methyl-N-[3-morpholin-4-yl-5-(morpholin-4-ylmethyl)phenyl]py-rimidine-2,4-diamine] | 307 nM |
| CN1CCN(Cc2cc(Nc3nccc(N(C)c4ccc(F)c(Cl)c4F)n3)cc(N3CCOCC3)c2)CC1 [Example 2.18, N′-(3-chloro-2,4-difluoro-phenyl)-N′-methyl-N-[3-[(4-methylpiperazin-1-yl)methyl]-5-morpholin-4-yl-phenyl] pyrimidine-2,4-diamine] | 46.1 nM |
| CN(c1ccnc(Nc2cc(CN3CCC(O)CC3)cc(N3CCOCC3)c2)n1)c1ccc(F)c(Cl)c1F [Example 2.19, 1-[[3-[[4-[(3-chloro-2,4-difluoro-phenyl)-methyl-amino]pyrimidin-2-yl]amino]-5-morpholin-4-yl-phenyl]methyl]piperidin-4-ol] | 59.6 nM |
| CN1CCN(c2cc(Nc3nccc(N(C)c4ccc(F)c(Cl)c4F)n3)cc(S(C)(=O)=O)c2)CC1 [Example 3, N′-(3-chloro-2,4-difluoro-phenyl)-N′-methyl-N-[3-(4-methylpiperazin-1-yl)-5-methylsulfonyl-phenyl]pyrimidine-2,4-diamine] | 65.1 nM |
| CN1CCN(c2cc(Nc3nccc(N(C)c4ccc(F)c(Cl)c4F)n3)cc(N3CCOCC3)c2)CC1 [Example 5, N′-(3-chloro-2,4-difluoro-phenyl)-N′-methyl-N-[3-(4-methylpiperazin-1-yl)-5-morpholin-4-yl-phenyl]pyrimidine-2,4-diamine] | 424 nM |

Other lines, results leading:

| IC50 | SMILES |
| --- | --- |
| 75.9 nM | Cc1ccc(CO)cc1N(C)c1ccnc(Nc2cc(N3CCOCC3)cc(N3CCC(O)CC3)c2)n1 [Example 7.8, 1-[3-[[4-[[5-(hydroxymethyl)-2-methyl-phenyl]-methyl-amino]pyrimidin-2-yl]amino]-5-morpholin-4-yl-phenyl]piperidin-4-ol] |
| 151 nM | Cc1ccc(CO)cc1N(C)c1ccnc(Nc2cc(N3CCOCC3)cc(N3CC[C@H](O)C3)c2)n1 [Example 7.9, (3S)-1-[3-[[4-[[5-(hydroxymethyl)-2-methyl-phenyl]-methyl-amino]pyrimidin-2-yl]amino]-5-morpholin-4-yl-phenyl]pyrrolidin-3-ol] |
| 13.5 nM | Cc1ccc(CO)cc1N(C)c1ccnc(Nc2cc(N3CCOCC3)cc(N3CC[C@@H](O)C3)c2)n1 [Example 7.10, (3R)-1-[3-[[4-[[5-(hydroxymethyl)-2-methyl-phenyl]-methyl-amino]pyrimidin-2-yl]amino]-5-morpholin-4-yl-phenyl]pyrrolidin-3-ol] |
| 60.1 nM | Cc1ccc(CO)cc1N(C)c1ccnc(Nc2cc(C(=O)N(C)C)cc(N3CCOCC3)c2)n1 [Example 7.11, 3-[[4-[[5-(hydroxymethyl)-2-methyl-phenyl]-methyl-amino]pyrimidin-2-yl]amino]-N,N-dimethyl-5-morpholin-4-yl-benzamide] |
| 32.6 nM | Cc1ccc(CO)cc1N(C)c1ccnc(Nc2cc(CO)cc(N3CCOCC3)c2)n1 [Example 7.13, [3-[[4-[[5-(hydroxymethyl)-2-methyl-phenyl]-methyl-amino]pyrimidin-2-yl]amino]-5-morpholin-4-yl-phenyl]methanol] |
| 195 nM | Cc1ccc(CO)cc1N(C)c1ccnc(Nc2cc(C#N)cc(N3CCOCC3)c2)n1 [Example 7.15, 3-[[4-[[5-(hydroxymethyl)-2-methyl-phenyl]-methyl-amino]pyrimidin-2-yl]amino]-5-morpholin-4-yl-benzonitrile] |
| 22.2 nM | Cc1ccc(CO)cc1N(C)c1ccnc(Nc2cc(N3CCOCC3)cc(N3CCOCC3=O)c2)n1 [Example 7.16, 4-[3-[[4-[[5-(hydroxymethyl)-2-methyl-phenyl]-methyl-amino]pyrimidin-2-yl]amino]-5-morpholin-4-yl-phenyl]morpholin-3-one] |
| 3.13 nM | Cc1ccc(CO)cc1N(C)c1ccnc(Nc2cc(N3CCOCC3)cc(N3CCOC[C@@H]3C)c2)n1 [Example 7.17, (S)-(4-methyl-3-(methyl(2-(3-(3-methylmorpholino)-5-morpholinophenyl-amino)pyrimidin-4-yl)amino)phenyl)methanol] |
| 6.45 nM | Cc1ccc(CO)cc1N(C)c1ccnc(Nc2cc(N3CCOCC3)cc(N3CCOC[C@H]3C)c2)n1 [Example 7.18, (R)-(4-methyl-3-(methyl(2-(3-(3-methylmorpholino)-5-morpholinophenyl-amino)pyrimidin-4-yl)amino)phenyl)methanol] |
| 9.73 nM | Cc1ccc(CO)cc1N(C)c1ccnc(Nc2cc(N3CCOCC3)cc(N3CCC(=O)CC3)c2)n1 [Example 7.19, 1-(3-(4-((5-(hydroxymethyl)-2-methylphenyl)(methyl)amino)pyrimidin-2-ylamino)-5-morpholinophenyl)piperidin-4-one] |
